The values below are quoted from earlier work in PubChem BioAssay AID1259409 (Chemical Carcinogenesis Research Information System (CCRIS), 2018).

For the data set, the system named is rodent chemically induced tumor inhibition, incidence and multiplicity. Nature of the data set: CCRIS tumor inhibitor studies.

In the case of `C[n+]1ccc(-c2cc[n+](C)cc2)cc1`, the “tumour outcome (control, treated, inhibition, significance)” value reads like this: (Carcinogen: 7,12-DIMETHYLBENZ[A]ANTHRACENE, 57-97-6, Dose [Inhibitor]: 0, 26 MG/KG BW 1/WK FOR 4 WK BEGINNING POST CARCINOGEN DOSE (STUDY DURATION: 4 MO), Route [Inhibitor]: SUBCUTANEOUS, Species: MOUSE, Strain/Sex: ICR/FEMALE, Target Tissue: Type of Lesion: LUNG: TUMOR, Dose [Carcinogen]: 1 MG/KG BW ONCE ADMINISTERED TO NEONATAL MICE, Promoter: NONE USED) 4/10 (40%), 2/9 (22%), 45%, not calculated; (Carcinogen: 7,12-DIMETHYLBENZ[A]ANTHRACENE, 57-97-6, Dose [Inhibitor]: 0, 26 MG/KG BW 1/WK FOR 4 WK BEGINNING POST CARCINOGEN DOSE (STUDY DURATION: 4 MO), Route [Inhibitor]: SUBCUTANEOUS, Species: MOUSE, Strain/Sex: ICR/FEMALE, Target Tissue: Type of Lesion: LUNG: TUMOR, Dose [Carcinogen]: 10 MG/KG BW ONCE ADMINISTERED TO NEONATAL MICE, Promoter: NONE USED) 9/11 (82%), 4/7 (57%), 30%, not calculated; (Carcinogen: 7,12-DIMETHYLBENZ[A]ANTHRACENE, 57-97-6, Dose [Inhibitor]: 0, 26 MG/KG BW 1/WK FOR 4 WK BEGINNING POST CARCINOGEN DOSE (STUDY DURATION: 4 MO), Route [Inhibitor]: SUBCUTANEOUS, Species: MOUSE, Strain/Sex: ICR/MALE, Target Tissue: Type of Lesion: LUNG: TUMOR, Dose [Carcinogen]: 1 MG/KG BW ONCE ADMINISTERED TO NEONATAL MICE, Promoter: NONE USED) 2/10 (20%), 0/9 (0%), 100%, not calculated; (Carcinogen: 7,12-DIMETHYLBENZ[A]ANTHRACENE, 57-97-6, Dose [Inhibitor]: 0, 26 MG/KG BW 1/WK FOR 4 WK BEGINNING POST CARCINOGEN DOSE (STUDY DURATION: 4 MO), Route [Inhibitor]: SUBCUTANEOUS, Species: MOUSE, Strain/Sex: ICR/MALE, Target Tissue: Type of Lesion: LUNG: TUMOR, Dose [Carcinogen]: 10 MG/KG BW ONCE ADMINISTERED TO NEONATAL MICE, Promoter: NONE USED) 9/11 (82%), 4/9 (44%), 46%, not calculated; (Carcinogen: 7,12-DIMETHYLBENZ[A]ANTHRACENE, 57-97-6, Dose [Inhibitor]: 0, 26 MG/KG BW 1/WK FOR 4 WK BEGINNING POST CARCINOGEN DOSE (STUDY DURATION: 6 MO), Route [Inhibitor]: SUBCUTANEOUS, Species: MOUSE, Strain/Sex: ICR/MALE, Target Tissue: Type of Lesion: LIVER: TUMOR, Dose [Carcinogen]: 10 MG/KG BW ONCE ADMINISTERED TO NEONATAL MICE, Promoter: NONE USED) 4/11 (36%), 2/17 (12%), 67%, not calculated; (Carcinogen: 7,12-DIMETHYLBENZ[A]ANTHRACENE, 57-97-6, Dose [Inhibitor]: 0, 26 MG/KG BW 1/WK FOR 4 WK BEGINNING POST CARCINOGEN DOSE (STUDY DURATION: 6 MO), Route [Inhibitor]: SUBCUTANEOUS, Species: MOUSE, Strain/Sex: ICR/MALE, Target Tissue: Type of Lesion: LUNG: TUMOR, Dose [Carcinogen]: 1 MG/KG BW ONCE ADMINISTERED TO NEONATAL MICE, Promoter: NONE USED) 3/10 (30%), 1/9 (11%), 63%, not calculated. Besides, the “tumour outcome (control, treated, inhibition, significance)” value (Carcinogen: 7,12-DIMETHYLBENZ[A]ANTHRACENE, 57-97-6, Dose [Inhibitor]: 0, 26 MG/KG BW 1/WK FOR 4 WK BEGINNING POST CARCINOGEN DOSE (STUDY DURATION: 6 MO), Route [Inhibitor]: SUBCUTANEOUS, Species: MOUSE, Strain/Sex: ICR/MALE, Target Tissue: Type of Lesion: LUNG: TUMOR, Dose [Carcinogen]: 10 MG/KG BW ONCE ADMINISTERED TO NEONATAL MICE, Promoter: NONE USED) was 9/11 (82%), 13/17 (76%), 7%, not calculated.

With `CCOC(=O)/C=C(/C=C/C=C(C)/C=C/c1c(C)cc(OC)c(C)c1C)C(F)(F)F`, for the setting “Carcinogen: 7,12-DIMETHYLBENZ[A]ANTHRACENE, 57-97-6, Dose [Inhibitor]: 140 NMOL IN 0.2 ML ACETONE 2/WK (D 1 AND D 4 OF EACH WK) 1 HR BEFORE EACH PROMOTER APPLICATION STARTING 14 D AFTER CARCI, Route [Inhibitor]: DERMAL, Species: MOUSE, Strain/Sex: CD-1/FEMALE, Target Tissue: Type of Lesion: SKIN: PAPILLOMA, Dose [Carcinogen]: 0.2 UMOL IN 0.2 ML ACETONE ONCE, Promoter: 12-O-TETRADECANOYLPHORBOL-13-ACETATE, 16561-29-8”, the “tumour outcome (control, treated, inhibition, significance)” value was 90%, 100%, -11%, not significant.

Turning to `CC(C)(C)c1cc(O)c(C(C)(C)C)cc1O`, the “tumour outcome (control, treated, inhibition, significance)” value (Carcinogen: BENZO[A]PYRENE, 50-32-8, Dose [Inhibitor]: 0.03 MMOL/G OF DIET DAILY STARTING 8 D BEFORE AND CONTINUING THROUGH 3 D AFTER CARCINOGEN TREATMENT FOLLOWED BY OBSERVAT, Route [Inhibitor]: ORAL, Species: MOUSE, Strain/Sex: ICR/FEMALE, Target Tissue: Type of Lesion: FORESTOMACH: NEOPLASM, Dose [Carcinogen]: 1 MG IN 0.2 ML CORN OIL 2/WK FOR 4 WK, Promoter: NONE USED) is recorded as 90%, 95%, -6%, not significant.

With `CCCCOCCOCCOCc1cc2c(cc1CCC)OCO2`, the “tumour outcome (control, treated, inhibition, significance)” value (Carcinogen: N-NITROSODIETHYLAMINE, 55-18-5, Dose [Inhibitor]: 400 MG/KG IN 0.2 ML SESAME OIL (TOTAL VOL 0.1 ML) 2 HR PRIOR TO EACH CARCINOGEN DOSE (STUDY DURATION: 21 WK), Route [Inhibitor]: SUBCUTANEOUS, Species: HAMSTER, Strain/Sex: SYRIAN/MALE, Target Tissue: Type of Lesion: LUNG: ADENOMA, ADENOCARCINOMA, Dose [Carcinogen]: 17.8 MG/KG IN 0.9% SALINE (TOTAL VOL 0.1 ML) 2/WK FOR 20 WK, Promoter: NONE USED) is 6/10 (60%), 0/10 (0%), 100%, p<0.01.

Take `CN1CCN(CCCN2c3ccccc3Sc3ccc(C(F)(F)F)cc32)CC1`: the “tumour outcome (control, treated, inhibition, significance)” value reads like this: (Carcinogen: AZOXYMETHANE, 25843-45-2, Dose [Inhibitor]: 0, 15 MG/KG BW IN OLIVE OIL 1/2 D FOR 35 WK BEGINNING WITH START OF CARCINOGEN TREATMENT (STUDY DURATION: 35 WK), Route [Inhibitor]: SUBCUTANEOUS, Species: RAT, Strain/Sex: WISTAR/MALE, Target Tissue: Type of Lesion: COLON: TUMORS, Dose [Carcinogen]: 7.4 MG/KG BW IN 0.9% SALINE 1/WK FOR 10 WK, Promoter: NONE USED) 8/17 (47%), 11/17 (65%), -38%, not significant; (Carcinogen: AZOXYMETHANE, 25843-45-2, Dose [Inhibitor]: 0, 30 MG/KG BW IN OLIVE OIL 1/2 D FOR 35 WK BEGINNING WITH START OF CARCINOGEN TREATMENT (STUDY DURATION: 35 WK), Route [Inhibitor]: SUBCUTANEOUS, Species: RAT, Strain/Sex: WISTAR/MALE, Target Tissue: Type of Lesion: COLON: TUMORS, Dose [Carcinogen]: 7.4 MG/KG BW IN 0.9% SALINE 1/WK FOR 10 WK, Promoter: NONE USED) 8/17 (47%), 9/20 (45%), 4%, not significant.

With `Cn1c(=O)[nH]c2nc[nH]c2c1=O`, the “tumour outcome (control, treated, inhibition, significance)” value is, setting by setting: (Carcinogen: URETHANE, 51-79-6, Dose [Inhibitor]: 0.05 UMOL/G BW GIVEN AT 6 HR INTERVALS DURING THE PERIOD OF 0 TO 36 HR AFTER CARCINOGEN TREATMENT FOLLOWED BY 5 MO OBSER, Route [Inhibitor]: INTRAPERITONEAL, Species: MOUSE, Strain/Sex: ICR/FEMALE, Target Tissue: Type of Lesion: LUNG: PAPILLARY ADENOMA, Dose [Carcinogen]: 0.1 MG/G BW ONCE, Promoter: NONE USED) 31/59 (53%), 18/36 (50%), 6%, not significant; (Carcinogen: URETHANE, 51-79-6, Dose [Inhibitor]: 0.25 UMOL/G BW 1/D DURING THE PERIOD OF 5 TO 9 D AFTER CARCINOGEN TREATMENT FOLLOWED BY OBSERVATION PERIOD UNTIL END OF, Route [Inhibitor]: INTRAPERITONEAL, Species: MOUSE, Strain/Sex: ICR/FEMALE, Target Tissue: Type of Lesion: LUNG: PAPILLARY ADENOMA, Dose [Carcinogen]: 1 MG/G BW ONCE, Promoter: NONE USED) 49/53 (93%), 39/43 (91%), 2%, not significant.
